For one compound, Kd results are on record in article PMC3400326 (Pharmacogenomics and personalized medicine, 2011).

The structures appear in SMILES notation.

What is called Kd is the free concentration of one partner at which half of the binding sites on the other are occupied at equilibrium, for simple one-to-one binding. A high value points to a looser complex.

For one experiment, the target named is T1, SULT1E1 (Homo sapiens, UniProt P49888).
T1 sequence (P49888 1-294): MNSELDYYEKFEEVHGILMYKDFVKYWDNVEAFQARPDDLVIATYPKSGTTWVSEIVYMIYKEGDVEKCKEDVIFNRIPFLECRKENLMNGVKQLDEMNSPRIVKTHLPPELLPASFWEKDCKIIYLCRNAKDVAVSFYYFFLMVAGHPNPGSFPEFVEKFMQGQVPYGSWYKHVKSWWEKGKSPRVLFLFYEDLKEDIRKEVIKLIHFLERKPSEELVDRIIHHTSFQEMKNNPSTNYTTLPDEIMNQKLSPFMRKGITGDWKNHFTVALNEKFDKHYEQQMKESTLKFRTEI
Briefly: intrinsic fluorescence titration. The format is binding.

Another experiment has as its target SULT1A1 (Homo sapiens, UniProt P50225). Description: intrinsic fluorescence titration. It is filed as binding.

Sequence of SULT1A1 (P50225 whole entry): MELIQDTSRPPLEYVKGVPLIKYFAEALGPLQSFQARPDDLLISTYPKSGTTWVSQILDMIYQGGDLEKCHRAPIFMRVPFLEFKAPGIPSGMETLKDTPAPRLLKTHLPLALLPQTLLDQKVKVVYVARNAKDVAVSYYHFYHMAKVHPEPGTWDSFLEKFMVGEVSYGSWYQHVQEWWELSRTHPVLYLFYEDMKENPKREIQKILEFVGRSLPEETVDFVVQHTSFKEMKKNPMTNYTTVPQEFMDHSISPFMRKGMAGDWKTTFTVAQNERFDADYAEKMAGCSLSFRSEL

`C[C@]12CC[C@@H]3c4ccc(O)cc4C[C@@H](CCCCCCCCC[S+]([O-])CCCC(F)(F)C(F)(F)F)[C@H]3[C@@H]1CC[C@@H]2O` (some centres unmarked) [fulvestrant]: the Kd on SULT1E1 came to 200 ± 20 nM; on SULT1A1, 2300 ± 400 nM.
